{"source": "patent US5300491A", "about": "“Treatment of protozoal infection” (priority 1992, dated 1994)", "tested_on": "Entamoeba histolytica", "type": "cell-based", "text": "E. histolytica isolates representing three distinct zymodemes (I, II or XIV) were derived from a range of geographical locations. The patients from whom the isolates were obtained were either pathogenic (i.e. presented dysentery), or non-pathogenic (i.e., presented a non-dysenteric stage of infection characterized by passing of cysts or trophozoites). The following table identifies the E. histolytica isolates in accordance with the above criteria:\nEach isolate was a xenic culture, i.e., it contained, in addition to the E. histolytica amoeba, the normally occurring patient faecal microflora. The cultures were maintained according to the method of Robinson, Trans. Roy. Soc. Trop. Med. Hyg. 62, 285-94, (1968). Bacitracin (70 I.U./mg) and its zinc salt (65 I.U./mg) were obtained from Apothekernes Laboratorium A.S (Oslo, Norway). Following microtitre-assay standardization and pilot testing of the drugs (results not presented), the following assay procedure was established. Bacitracin was screened over the range of 20.0-0.625 mg/ml by doubling dilution. 30 mg/ml bacitracin was also examined. […] The remaining wells were run as controls. An initial stock solution of 75 mg/ml bacitracin was prepared in starch-free Robinson medium (SFRM) . Subsequent to loading the first set of wells, the stock was diluted with SFRM to 50 mg/ml, which was used to prepare the remaining concentrations. […] 100 μl volumes of both drugs were then double-diluted in SFRM to provide 2.5X concentrates of the required final concentrations in the microtitre plates. 50 μl of a 25 mg% starch (BDH) solution (in SFRM) was then added to each well. 16-18 hours before the end of the required 48-hour culture period, the amoeba isolates were passaged to fresh tubes containing starch-free Robinson medium. At the end of the culture period, the amoebae were harvested in a small volume of medium and resuspended in at least 20 volumes SFRM. The suspensions were centrifuged at 1000 rpm for 5 minutes prior to re-suspension in fresh medium and counted in a modified Neubauer chamber. Amoebae were centrifuged as before and the pellet resuspended to a concentration of 2.5×10^4 /ml SFRM. 100 μl aliquots were then pipetted into respective wells to provide duplicate cultures of each isolate for each concentration assayed. The plates were then placed in an anaerobic chamber (HP11, Oxoid) at 37° C. for 24 hours. While this procedure provided sufficient starch for the amoebae, the concentration was such that at 24 hours the plates were easily read and quantitified by direct observation using an inverted microscope. Viability was assessed by the addition of Trypan blue to a final concentration of 0.1%.\nReadings from each of the studies were collected and stored until all three experiments were completed in order to reduce any bias in subsequent readings. Minimun inhibitory and minimum lethal concentrations were given in mg/ml. […]", "key": {"[1]": {"conditions": "span over all xenic isolates and studies"}, "[2]": {"conditions": "xenic isolate 70k, Experiment 1"}, "[3]": {"conditions": "xenic isolate 70k, Experiment 2"}, "[4]": {"conditions": "xenic isolate 70k, Experiment 3"}, "[5]": {"conditions": "xenic isolate 116k, Experiment 1"}, "[6]": {"conditions": "xenic isolate 116k, Experiment 2"}, "[7]": {"conditions": "xenic isolate 116k, Experiment 3"}, "[8]": {"conditions": "xenic isolate 418, Experiment 1"}, "[9]": {"conditions": "xenic isolate 418, Experiment 2"}, "[10]": {"conditions": "xenic isolate 418, Experiment 3"}, "[11]": {"conditions": "xenic isolate 1246, Experiment 1"}, "[12]": {"conditions": "xenic isolate 1246, Experiment 2"}, "[13]": {"conditions": "xenic isolate 1246, Experiment 3"}, "[14]": {"conditions": "xenic isolate AiDO, Experiment 1"}, "[15]": {"conditions": "xenic isolate AiDO, Experiment 2"}, "[16]": {"conditions": "xenic isolate AiDO, Experiment 3"}, "[17]": {"conditions": "xenic isolate BiLO, Experiment 1"}, "[18]": {"conditions": "xenic isolate BiLO, Experiment 3"}}, "note": "Like-named read-outs stand apart in the source and are kept apart here."}
{"substance": "Zinc bacitracin", "values": [{"measurement": "concentration at which precipitation occurred", "setting": "in the xenic culture assay medium", "result": "≥ 5000", "unit": "µg/mL"}, {"measurement": "MICs", "setting": "[1]", "result": "0.16 to 1.25", "unit": "mg/mL"}, {"measurement": "MLCs", "setting": "[1]", "result": "1.25 to 5.0", "unit": "mg/mL"}, {"measurement": "Minimum Lethal Concentration (MLC)", "setting": "xenic Isolate 1, single study over a narrower range of drug concentration (Table 4)", "result": 1600, "unit": "µg/mL"}, {"measurement": "Minimum Lethal Concentration (MLC)", "setting": "xenic Isolate C1, single study over a narrower range of drug concentration (Table 4)", "result": 1400, "unit": "µg/mL"}, {"measurement": "Minimum Inhibitory Concentration (MIC)", "setting": "xenic isolate 1, Experiment 1", "result": 630, "unit": "µg/mL"}, {"measurement": "Minimum Lethal Concentration (MLC)", "setting": "xenic isolate 1, Experiment 1", "result": 2500, "unit": "µg/mL"}, {"measurement": "Minimum Inhibitory Concentration (MIC)", "setting": "xenic isolate 1, Experiment 2", "result": 1250, "unit": "µg/mL"}, {"measurement": "Minimum Lethal Concentration (MLC)", "setting": "xenic isolate 1, Experiment 2", "result": 2500, "unit": "µg/mL"}, {"measurement": "Minimum Inhibitory Concentration (MIC)", "setting": "xenic isolate 1, Experiment 3", "result": 310, "unit": "µg/mL"}, {"measurement": "Minimum Lethal Concentration (MLC)", "setting": "xenic isolate 1, Experiment 3", "result": 2500, "unit": "µg/mL"}, {"measurement": "Minimum Inhibitory Concentration (MIC)", "setting": "[2]", "result": 630, "unit": "µg/mL"}, {"measurement": "Minimum Lethal Concentration (MLC)", "setting": "[2]", "result": 2500, "unit": "µg/mL"}, {"measurement": "Minimum Inhibitory Concentration (MIC)", "setting": "[3]", "result": 630, "unit": "µg/mL"}, {"measurement": "Minimum Lethal Concentration (MLC)", "setting": "[3]", "result": 2500, "unit": "µg/mL"}, {"measurement": "Minimum Inhibitory Concentration (MIC)", "setting": "[4]", "result": 630, "unit": "µg/mL"}, {"measurement": "Minimum Lethal Concentration (MLC)", "setting": "[4]", "result": 2500, "unit": "µg/mL"}, {"measurement": "Minimum Inhibitory Concentration (MIC)", "setting": "[5]", "result": 630, "unit": "µg/mL"}, {"measurement": "Minimum Lethal Concentration (MLC)", "setting": "[5]", "result": 2500, "unit": "µg/mL"}, {"measurement": "Minimum Inhibitory Concentration (MIC)", "setting": "[6]", "result": 310, "unit": "µg/mL"}, {"measurement": "Minimum Lethal Concentration (MLC)", "setting": "[6]", "result": 1250, "unit": "µg/mL"}, {"measurement": "Minimum Inhibitory Concentration (MIC)", "setting": "[7]", "result": 310, "unit": "µg/mL"}, {"measurement": "Minimum Lethal Concentration (MLC)", "setting": "[7]", "result": 2500, "unit": "µg/mL"}, {"measurement": "Minimum Inhibitory Concentration (MIC)", "setting": "[8]", "result": 630, "unit": "µg/mL"}, {"measurement": "Minimum Lethal Concentration (MLC)", "setting": "[8]", "result": 5000, "unit": "µg/mL"}, {"measurement": "Minimum Inhibitory Concentration (MIC)", "setting": "[9]", "result": 310, "unit": "µg/mL"}, {"measurement": "Minimum Lethal Concentration (MLC)", "setting": "[9]", "result": 2500, "unit": "µg/mL"}, {"measurement": "Minimum Inhibitory Concentration (MIC)", "setting": "[10]", "result": 310, "unit": "µg/mL"}, {"measurement": "Minimum Lethal Concentration (MLC)", "setting": "[10]", "result": 2500, "unit": "µg/mL"}, {"measurement": "Minimum Inhibitory Concentration (MIC)", "setting": "[11]", "result": 160, "unit": "µg/mL"}, {"measurement": "Minimum Lethal Concentration (MLC)", "setting": "[11]", "result": 2500, "unit": "µg/mL"}, {"measurement": "Minimum Inhibitory Concentration (MIC)", "setting": "[12]", "result": 630, "unit": "µg/mL"}, {"measurement": "Minimum Lethal Concentration (MLC)", "setting": "[12]", "result": 2500, "unit": "µg/mL"}, {"measurement": "Minimum Inhibitory Concentration (MIC)", "setting": "[13]", "result": 310, "unit": "µg/mL"}, {"measurement": "Minimum Lethal Concentration (MLC)", "setting": "[13]", "result": 1250, "unit": "µg/mL"}, {"measurement": "Minimum Inhibitory Concentration (MIC)", "setting": "[14]", "result": 630, "unit": "µg/mL"}, {"measurement": "Minimum Lethal Concentration (MLC)", "setting": "[14]", "result": 2500, "unit": "µg/mL"}, {"measurement": "Minimum Inhibitory Concentration (MIC)", "setting": "[15]", "result": 160, "unit": "µg/mL"}, {"measurement": "Minimum Lethal Concentration (MLC)", "setting": "[15]", "result": 2500, "unit": "µg/mL"}, {"measurement": "Minimum Inhibitory Concentration (MIC)", "setting": "[16]", "result": 160, "unit": "µg/mL"}, {"measurement": "Minimum Lethal Concentration (MLC)", "setting": "[16]", "result": 2500, "unit": "µg/mL"}, {"measurement": "Minimum Inhibitory Concentration (MIC)", "setting": "[17]", "result": 310, "unit": "µg/mL"}, {"measurement": "Minimum Lethal Concentration (MLC)", "setting": "[17]", "result": 2500, "unit": "µg/mL"}, {"measurement": "Minimum Inhibitory Concentration (MIC)", "setting": "[18]", "result": 310, "unit": "µg/mL"}, {"measurement": "Minimum Lethal Concentration (MLC)", "setting": "[18]", "result": 2500, "unit": "µg/mL"}, {"measurement": "Minimum Inhibitory Concentration (MIC)", "setting": "xenic isolate C1, Experiment 1", "result": 1250, "unit": "µg/mL"}, {"measurement": "Minimum Lethal Concentration (MLC)", "setting": "xenic isolate C1, Experiment 1", "result": 2500, "unit": "µg/mL"}, {"measurement": "Minimum Inhibitory Concentration (MIC)", "setting": "xenic isolate C1, Experiment 2", "result": 310, "unit": "µg/mL"}, {"measurement": "Minimum Lethal Concentration (MLC)", "setting": "xenic isolate C1, Experiment 2", "result": 2500, "unit": "µg/mL"}, {"measurement": "Minimum Inhibitory Concentration (MIC)", "setting": "xenic isolate C1, Experiment 3", "result": 310, "unit": "µg/mL"}, {"measurement": "Minimum Lethal Concentration (MLC)", "setting": "xenic isolate C1, Experiment 3", "result": 2500, "unit": "µg/mL"}, {"measurement": "Minimum Inhibitory Concentration (MIC)", "setting": "xenic isolate C2, Experiment 1", "result": 630, "unit": "µg/mL"}, {"measurement": "Minimum Lethal Concentration (MLC)", "setting": "xenic isolate C2, Experiment 1", "result": 2500, "unit": "µg/mL"}, {"measurement": "Minimum Inhibitory Concentration (MIC)", "setting": "xenic isolate C2, Experiment 2", "result": 630, "unit": "µg/mL"}, {"measurement": "Minimum Lethal Concentration (MLC)", "setting": "xenic isolate C2, Experiment 2", "result": 2500, "unit": "µg/mL"}, {"measurement": "Minimum Inhibitory Concentration (MIC)", "setting": "xenic isolate C2, Experiment 3", "result": 310, "unit": "µg/mL"}, {"measurement": "Minimum Lethal Concentration (MLC)", "setting": "xenic isolate C2, Experiment 3", "result": 2500, "unit": "µg/mL"}, {"measurement": "Minimum Inhibitory Concentration (MIC)", "setting": "xenic isolate DA, Experiment 1", "result": 630, "unit": "µg/mL"}, {"measurement": "Minimum Lethal Concentration (MLC)", "setting": "xenic isolate DA, Experiment 1", "result": 2500, "unit": "µg/mL"}, {"measurement": "Minimum Inhibitory Concentration (MIC)", "setting": "xenic isolate DA, Experiment 2", "result": 630, "unit": "µg/mL"}, {"measurement": "Minimum Lethal Concentration (MLC)", "setting": "xenic isolate DA, Experiment 2", "result": 2500, "unit": "µg/mL"}]}
